By IC50 is commonly meant the concentration at which inhibition is half-maximal.

In one assay the target is T1, rat CB-1 receptor (Rattus norvegicus, UniProt P20272).
T1 construct: The tissue obtained from the brain of SD rats was homogenized; from tissue; host or cells: SD rat brain membrane homogenate
T1 sequence (P20272 whole entry): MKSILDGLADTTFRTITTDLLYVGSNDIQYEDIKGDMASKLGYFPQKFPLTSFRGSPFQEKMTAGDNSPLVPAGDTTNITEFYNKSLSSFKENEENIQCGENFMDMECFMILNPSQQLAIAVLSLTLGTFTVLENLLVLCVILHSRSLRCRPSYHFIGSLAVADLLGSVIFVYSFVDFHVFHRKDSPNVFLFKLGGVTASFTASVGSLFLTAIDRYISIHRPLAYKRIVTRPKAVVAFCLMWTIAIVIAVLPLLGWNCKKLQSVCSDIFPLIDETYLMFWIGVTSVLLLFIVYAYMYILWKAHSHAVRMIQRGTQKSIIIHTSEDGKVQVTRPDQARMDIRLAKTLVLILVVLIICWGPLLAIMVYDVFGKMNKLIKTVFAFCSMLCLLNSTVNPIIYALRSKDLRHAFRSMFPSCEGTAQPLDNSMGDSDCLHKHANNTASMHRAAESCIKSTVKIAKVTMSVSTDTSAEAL
The assay can be described thus: rat cannabinoid-1 receptor (CB1R) binding affinity assay.
Conditions: not given
The procedure:
The tissue obtained from the brain of SD rats was homogenized with a Dounce homogenate system in TME(50 mM Tris, 3 mM MgCl2 and 1 mM EDTA, pH 7.4) at 4° C., and the homogenate was centrifuged at 48,000 g for 30 min. at 4° C. The pellet was resuspended in 5 ml of TME and the suspension was divided into aliquots and stored at −70° C. until its use in the following assay.
The tissue concentrations were determined by Bradford protein analysis, and 148 μl of brain tissue of the required concentration was added to the plate. The plate was covered and placed in a 30° C. incubator for 60 min, and then transformed on GF/B filtermat pretreated in polyethylenimine (PEI) using a cell harvester. Each filter was washed five times and dried at 60° C. for 1 hr. Then, the degree of radioactivity retained by the filter was measured using Wallac Microbeta™ (PerkinElmer Life Sciences, Inc., Massachusetts, U.S.A.) and the activity of the compound for inhibiting CB1 receptor was determined therefrom.
Regarding `CSc1c(-c2nnc(C3(C(F)(F)F)CC3)o2)nn(-c2ccccc2Cl)c1-c1ccc(Br)cc1` [Example 14, 2-(5-(4-bromophenyl)-1-(2-chlorophenyl)-4-(methylthio)-1H-pyrazol-3-yl)-5-(1-(trifluoromethyl)cyclopropyl)-1,3,4-oxadiazole], the half-inhibitory concentration (IC50) stood at 4.11 nM.
Still for that read-out and setting: to `CSc1c(-c2nnc(C3(C(F)(F)F)CCC3)s2)nn(-c2ccc(Cl)cc2Cl)c1-c1ccc(Cl)cc1` [Example 23, 2-(5-(4-chlorophenyl)-1-(2,4-dichlorophenyl)-4-(methylthio)-1H-pyrazol-3-yl)-5-(1-(trifluoromethyl)cyclobutyl)-1,3,4-thiadiazole] belongs 7.31 nM; to `CSc1c(-c2nnc(C3(c4ccc(Cl)cc4)CC3)s2)nn(-c2ccc(Cl)cc2Cl)c1-c1ccc(Cl)cc1` [Example 24, 2-(5-(4-chlorophenyl)-1-(2,4-dichlorophenyl)-4-(methylthio)-1H-pyrazol-3-yl)-5-(1-(4-chlorophenyl)cyclopropyl)-1,3,4-thiadiazole], 6.66 nM; to `CSc1c(-c2nnc(C3(C(F)(F)F)CCC3)s2)nn(-c2ccccc2Cl)c1-c1ccc(Br)cc1` [Example 35, 2-(5-(4-bromophenyl)-1-(2-chlorophenyl)-4-(methylthio)-1H-pyrazol-3-yl)-5-(1-(trifluoromethyl)cyclobutyl)-1,3,4-thiadiazole], 7.77 nM.

Staying with this assay, now noted: [3H]CP-55940 radioligand, SD rat brain tissue homogenate, 30° C., 60 min; read-out: IC50.
As to `CSc1c(-c2nnc(C(C)(C)C)o2)nn(-c2ccc(Cl)cc2Cl)c1-c1ccc(Cl)cc1` [Example 1, 2-tert-butyl-5-(5-(4-chlorophenyl)-1-(2,4-dichlorophenyl)-4-(methylthio)-1H-pyrazol-3-yl)-1,3,4-oxadiazole], the half-inhibitory concentration (IC50) stood at 6.26 nM.
Same read-out and setting: next, `CSc1c(-c2nnc(C3(C(F)(F)F)CC3)o2)nn(-c2ccc(Cl)cc2Cl)c1-c1ccc(Cl)cc1` [Example 2, 2-(5-(4-chlorophenyl)-1-(2,4-dichlorophenyl)-4-(methylthio)-1H-pyrazol-3-yl)-5-(1-(trifluoromethyl)cyclopropyl)-1,3,4-oxadiazole]: 6.63 nM; `CSc1c(-c2nnc(C3(C(F)(F)F)CCC3)o2)nn(-c2ccc(Cl)cc2Cl)c1-c1ccc(Cl)cc1` [Example 3, 2-(5-(4-chlorophenyl)-1-(2,4-dichlorophenyl)-4-(methylthio)-1H-pyrazol-3-yl)-5-(1-(trifluoromethyl)cyclobutyl)-1,3,4-oxadiazole]: 9.71 nM.
The same measure, in the same setting: to `CSc1c(-c2nnc(C3(c4ccc(Cl)cc4)CC3)o2)nn(-c2ccc(Cl)cc2Cl)c1-c1ccc(Cl)cc1` [Example 4, 2-(5-(4-chlorophenyl)-1-(2,4-dichlorophenyl)-4-(methylthio)-1H-pyrazol-3-yl)-5-(1-(4-chlorophenyl)cyclopropyl)-1,3,4-oxadiazole] belongs 5.26 nM; to `CSc1c(-c2nnc(C3(C(F)(F)F)CC3)o2)nn(-c2ccccc2Cl)c1-c1ccc(Cl)cc1` [Example 6, 2-(1-(2-chlorophenyl)-5-(4-chlorophenyl)-4-(methylthio)-1H-pyrazol-3-yl)-5-(1-(trifluoromethyl)cyclopropyl)-1,3,4-oxadiazole], 8.3 nM.
The same measure, in the same setting: to `CSc1c(-c2nnc(C3(C(F)(F)F)CCC3)o2)nn(-c2ccccc2Cl)c1-c1ccc(Cl)cc1` [Example 7, 2-(1-(2-chlorophenyl)-5-(4-chlorophenyl)-4-(methylthio)-1H-pyrazol-3-yl)-5-(1-(trifluoromethyl)cyclobutyl)-1,3,4-oxadiazole] belongs 4.21 nM; to `CSc1c(-c2nnc(C3(c4ccc(Cl)cc4)CC3)o2)nn(-c2ccccc2Cl)c1-c1ccc(Cl)cc1` [Example 8, 2-(1-(2-chlorophenyl)-5-(4-chlorophenyl)-4-(methylthio)-1H-pyrazol-3-yl)-5-(1-(4-chlorophenyl)cyclopropyl)-1,3,4-oxadiazole], 4.61 nM; to `CSc1c(-c2nnc(C(C)(C)C)o2)nn(-c2ccc(Cl)cc2Cl)c1-c1ccc(Br)cc1` [Example 9, 2-(5-(4-bromophenyl)-1-(2,4-dichlorophenyl)-4-(methylthio)-1H-pyrazol-3-yl)-5-tert-butyl-1,3,4-oxadiazole], 5.5 nM.
With `CSc1c(-c2nnc(C3(C(F)(F)F)CC3)o2)nn(-c2ccc(Cl)cc2Cl)c1-c1ccc(Br)cc1` [Example 10, 2-(5-(4-bromophenyl)-1-(2,4-dichlorophenyl)-4-(methylthio)-1H-pyrazol-3-yl)-5-(1-(trifluoromethyl)cyclopropyl)-1,3,4-oxadiazole], the IC50 stood at 7.95 nM.
On the same count and under the same terms, next, `CSc1c(-c2nnc(C3(C(F)(F)F)CCC3)o2)nn(-c2ccc(Cl)cc2Cl)c1-c1ccc(Br)cc1` [Example 11, 2-(5-(4-bromophenyl)-1-(2,4-dichlorophenyl)-4-(methylthio)-1H-pyrazol-3-yl)-5-(1-(trifluoromethyl)cyclobutyl)-1,3,4-oxadiazole]: 8.44 nM; `CSc1c(-c2nnc(C3(c4ccc(Cl)cc4)CC3)o2)nn(-c2ccc(Cl)cc2Cl)c1-c1ccc(Br)cc1` [Example 12, 2-(5-(4-bromophenyl)-1-(2,4-dichlorophenyl)-4-(methylthio)-1H-pyrazol-3-yl)-5-(1-(4-chlorophenyl)cyclopropyl)-1,3,4-oxadiazole]: 9.23 nM.
On to `CSc1c(-c2nnc(C(C)(C)C)s2)nn(-c2ccc(Cl)cc2Cl)c1-c1ccc(Cl)cc1` [Example 21, 2-tert-butyl-5-(5-(4-chlorophenyl)-1-(2,4-dichlorophenyl)-4-(methylthio)-1H-pyrazol-3-yl)-1,3,4-thiadiazole], for which the half-maximal inhibitory concentration (IC50) is 5.19 nM.
Same read-out and setting: next, `CSc1c(-c2nnc(C3(C(F)(F)F)CC3)s2)nn(-c2ccc(Cl)cc2Cl)c1-c1ccc(Cl)cc1` [Example 22, 2-(5-(4-chlorophenyl)-1-(2,4-dichlorophenyl)-4-(methylthio)-1H-pyrazol-3-yl)-5-(1-(trifluoromethyl)cyclopropyl)-1,3,4-thiadiazole]: 10.9 nM; `CSc1c(-c2nnc(C3(C(F)(F)F)CC3)s2)nn(-c2ccc(Cl)cc2Cl)c1-c1ccc(Br)cc1` [Example 30, 2-(5-(4-bromophenyl)-1-(2,4-dichlorophenyl)-4-(methylthio)-1H-pyrazol-3-yl)-5-(1-(trifluoromethyl)cyclopropyl)-1,3,4-thiadiazole]: 14.8 nM; `CSc1c(-c2nnc(C(C)(C)C)s2)nn(-c2ccccc2Cl)c1-c1ccc(Br)cc1` [Example 33, 2-(5-(4-bromophenyl)-1-(2-chlorophenyl)-4-(methylthio)-1H-pyrazol-3-yl)-5-tert-butyl-1,3,4-thiadiazole]: 5.7 nM.
On the same count and under the same terms, to `CSc1c(-c2nnc(C3(C(F)(F)F)CC3)s2)nn(-c2ccccc2Cl)c1-c1ccc(Br)cc1` [Example 34, 2-(5-(4-bromophenyl)-1-(2-chlorophenyl)-4-(methylthio)-1H-pyrazol-3-yl)-5-(1-(trifluoromethyl)cyclopropyl)-1,3,4-thiadiazole] belongs 17.1 nM; to `C[S+]([O-])c1c(-c2nnc(C(C)(C)C)o2)nn(-c2ccc(Cl)cc2Cl)c1-c1ccc(Cl)cc1` (stereo not drawn) [Example 41, 2-tert-butyl-5-(5-(4-chlorophenyl)-1-(2,4-dichlorophenyl)-4-(methylsulfinyl)-1H-pyrazol-3-yl)-1,3,4-oxadiazole], 30.4 nM.

The values above are taken from patent US8309584B2, “Sulfur containing pyrazole-heterocycle derivatives as cannabinoid CB1 receptor antagonists” (Green Cross Corporation, priority 2008, dated 2012).
